Measurements from patent US12286632B2, “Rationally-designed synthetic peptide shuttle agents for delivering polypeptide cargos from an extracellular space to the cytosol and/or nucleus of a target eukaryotic cell, uses thereof, methods and kits relating to same” (Feldan Bio Inc., priority 2016, dated 2025).
Bridge positions count the residues as written; N and C are the ends. Ends that are not written are not given here. Peptide text beside a SMILES is read from it. I, II: the chains in the order shown.

Key:
in vitro [1] = conditions: human, HeLa cells
HeLa cells = experiment: GFP-NLS protein transduction assay (flow cytometry: Pos cells %, viability %, relative fluorescence intensity; microscopy)
in vitro [2] = conditions: human, HeLa cells; remark: listed apart in the source
[3] = Cell viability (%) (±St. Dev.; n = 3)
[4] = Table B3, HeLa cells, GFP-NLS cargo
[5] = Table 10.3a, Protocol B, HeLa, shuttle 50 μM, GFP-NLS 5 μM, 10 seconds
[6] = Cell viability (%) (±St Dev.; n = 3)
[7] = Table 10.3e, Protocol B, HeLa, shuttle 20 μM, GFP-NLS 5 μM, 1 minute

## CSCC[C@H](NC(=O)[C@H](CCCCN)NC(=O)[C@H](CC(N)=O)NC(=O)[C@H](CC(C)C)NC(=O)[C@H](Cc1c[nH]c2ccccc12)NC(=O)[C@H](Cc1ccccc1)NC(=O)[C@H](CS)NC(=O)[C@H](CC(C)C)NC(=O)[C@H](Cc1ccccc1)NC(=O)[C@H](CCC(N)=O)NC(=O)[C@H](Cc1c[nH]cn1)NC(=O)[C@H](Cc1c[nH]cn1)NC(=O)[C@H](Cc1c[nH]cn1)NC(=O)[C@H](Cc1c[nH]cn1)NC(=O)[C@H](Cc1c[nH]cn1)NC(=O)[C@@H](N)Cc1c[nH]cn1)C(=O)NCC(=O)N[C@@H](CCCCN)C(=O)N[C@@H](Cc1c[nH]cn1)C(=O)N[C@@H](CC(N)=O)C(=O)N[C@H](C(=O)N[C@H](C(=O)N[C@@H](Cc1c[nH]c2ccccc12)C(=O)N[C@@H](Cc1c[nH]cn1)C(=O)NCC(=O)N[C@@H](CCCNC(=N)N)C(=O)N[C@@H](Cc1c[nH]cn1)C(=O)N[C@@H](CC(C)C)C(=O)N[C@@H](CCCCN)C(=O)N[C@@H](CS)C(=O)N[C@@H](Cc1c[nH]cn1)C(=O)N[C@@H](CCCCN)C(=O)N[C@@H](CCCNC(=N)N)C(=O)NCC(=O)N[C@@H](CCCCN)C(=O)NCC(=O)O)C(C)C)[C@@H](C)O [FSN3] (H-HHHHHHQFLCFWLNKMGKHNTVWHGRHLKCHKRGKG-OH; N-terminus and C-terminus assumed)
In vitro [1]; [3]
  viability: 97.2 ± 2.03%

## CC(C)C[C@H](NC(=O)[C@H](CC(C)C)NC(=O)[C@H](CCCNC(=N)N)NC(=O)[C@H](CCCNC(=N)N)NC(=O)[C@H](Cc1c[nH]c2ccccc12)NC(=O)[C@H](CC(C)C)NC(=O)[C@H](Cc1ccc(O)cc1)NC(=O)[C@H](CC(C)C)NC(=O)[C@H](CC(C)C)NC(=O)[C@H](Cc1c[nH]cn1)NC(=O)[C@H](Cc1c[nH]cn1)NC(=O)[C@H](Cc1c[nH]cn1)NC(=O)[C@H](Cc1c[nH]cn1)NC(=O)[C@H](Cc1c[nH]cn1)NC(=O)[C@@H](N)Cc1c[nH]cn1)C(=O)N[C@@H](CCCCN)C(=O)N[C@@H](Cc1ccccc1)C(=O)N[C@@H](Cc1c[nH]c2ccccc12)C(=O)N[C@@H](CS)C(=O)N[C@@H](C)C(=O)NCC(=O)N[C@@H](CCCNC(=N)N)C(=O)N[C@@H](CCCNC(=N)N)C(=O)N[C@H](C(=O)N[C@@H](Cc1ccc(O)cc1)C(=O)N[C@@H](C)C(=O)N[C@@H](CCCCN)C(=O)N[C@@H](CS)C(=O)N[C@@H](C)C(=O)N[C@@H](CCCCN)C(=O)N[C@@H](C)C(=O)N[C@@H](Cc1ccc(O)cc1)C(=O)NCC(=O)N[C@@H](CS)C(=O)N[C@@H](Cc1ccccc1)C(=O)O)C(C)C [FSN4] (H-HHHHHHLLYLWRRLLKFWCAGRRVYAKCAKAYGCF-OH; N-terminus and C-terminus assumed)
In vitro [1]; [3]
  viability: 90.5 ± 4.18%
HeLa cells; [4]
  Mean % cells with GFP signal (±St Dev.; n = 3): 5.84 ± 0.49%

## N=C(N)NCCC[C@H](NC(=O)[C@H](CCCNC(=N)N)NC(=O)[C@H](CCCNC(=N)N)NC(=O)[C@H](CCC(N)=O)NC(=O)[C@H](CCCNC(=N)N)NC(=O)[C@H](CCCNC(=N)N)NC(=O)[C@H](CCCCN)NC(=O)[C@H](CCCCN)NC(=O)[C@H](CCCNC(=N)N)NC(=O)CNC(=O)[C@@H](N)Cc1ccc(O)cc1)C(=O)O [TAT, reference compound]
In vitro [1]
  viability at 10 s, 50 µM: 94.6 ± 0.44%
HeLa cells; Table 10.4, Protocol B, HeLa, peptide 50 μM, GFP-NLS 5 μM, 10 seconds
  Mean % cells with GFP signal (±St. Dev.; n = 3): 1.1 ± 0.27%
HeLa cells; peptide 50 μM, GFP-NLS 5 μM, 10 seconds, Protocol B
  GFP-NLS transduction (flow cytometry, in words): not able to successfully transduce GFP-NLS

## CC(C)C[C@H](NC(=O)[C@H](C)NC(=O)[C@H](CCCCN)NC(=O)[C@H](C)NC(=O)[C@H](CC(C)C)NC(=O)[C@H](CCCCN)NC(=O)[C@H](C)NC(=O)[C@H](CCC(=O)O)NC(=O)[C@H](Cc1c[nH]c2ccccc12)NC(=O)CNC(=O)[C@@H](NC(=O)[C@@H]1CCCN1C(=O)[C@H](CCCNC(=N)N)NC(=O)[C@H](CC(C)C)NC(=O)[C@H](CS)NC(=O)[C@@H](N)CC(C)C)C(C)C)C(=O)N[C@@H](C)C(=O)N[C@@H](CCCCN)C(=O)N[C@@H](C)C(=O)N[C@@H](CC(C)C)C(=O)N[C@@H](C)C(=O)N[C@@H](CCCCN)C(=O)N[C@@H](Cc1c[nH]cn1)C(=O)N[C@@H](CC(C)C)C(=O)N[C@@H](C)C(=O)N[C@@H](CCCCN)C(=O)N[C@@H](C)C(=O)N[C@@H](CC(C)C)C(=O)N[C@@H](C)C(=O)N[C@@H](CCCCN)C(=O)N[C@@H](C)C(=O)N[C@@H](CC(C)C)C(=O)N[C@@H](CCCCN)C(=O)N[C@@H](C)C(=O)N[C@@H](CS)C(=O)N[C@@H](CCC(=O)O)C(=O)N[C@@H](C)C(=O)O [Xentry-KALA] (H-LCLRPVGWEAKLAKALAKALAKHLAKALAKALKACEA-OH)
In vitro [2]
  viability: 75.3 ± 4.29%

## HHHHHHFRKLWLAIVRAKK [FSN8]
In vitro [1]; [3]
  viability: 94.5 ± 3.72%

## HHHHHHKKALLALALHHLAHLALHLALALKKAYARAAARQARA [His--PTD4]
HeLa cells; [5]
  Cell viability (%) (±St. Dev.; n = 3): 98 ± 1.5%

## HHHHHHKLKLRSRLKWGRTQLWRALAKKALLHHHHHH [FSN2]
In vitro [1]; [3]
  viability: 91.3 ± 4.66%
HeLa cells; [4]
  Mean % cells with GFP signal (±St Dev.; n = 3): 12.13 ± 2.06%

## HHHHHHKRKKKRRAKKKRAWLYLALLLWALALHHHHHH [FSD3]
In vitro [1]; [6]
  viability: 91.1 ± 6.37%

## HHHHHHKRKRRSKKRKLWTQGWLLLALLALAHHHHHH [FSN1]
In vitro [1]
  viability: 94.3 ± 3.07%
HeLa cells; [4]
  Mean % cells with GFP signal (±St Dev.; n = 3): 9.14 ± 0.93%

## HHHHHHKRQLKRKLRKWKRLLRLLRLLARLWLHHHHHH [FSD4]
In vitro [1]; [6]
  viability: 86.1 ± 8.15%

## HHHHHHKWAKLLRAFAKAIKKLYARLARRQARTGHHHHHH [FSD13]
In vitro [1]; [6]
  viability: 49.5 ± 5.13%

## HHHHHHKWKLFKKIGAVLKVLTTGGWTLNSAGYLLKINLKALAALAKKIL [His-CM18-Transportan (TPT)]
HeLa cells; Table 10.1, Protocol B, HeLa, shuttle 50 μM, GFP-NLS 5 μM, 10 seconds
  Cell viability (%) (±St. Dev.; n = 3): 41.3 ± 3.3%
HeLa cells; [5]
  Cell viability (%) (±St. Dev.; n = 3): 41.3 ± 3.29%

## HHHHHHKWKLFKKIGAVLKVLTTGGWTLNSAGYLLKINLKALAALAKKIL [His-CM18-Transportan]
In vitro [2]
  viability: 11.9 ± 1.07%

## HHHHHHKWKLFKKIGAVLKVLTTGYARAAARQARACCCCCC (cysteines drawn unpaired) [His-CM18-PTD4-6Cys]
HeLa cells; [7]
  Mean % cells with GFP signal (±St Dev.; n = 3): 41.3 ± 4.28%

## HHHHHHKWKLFKKIGAVLKVLTTGYGRKKRRQRRRC [His-CM18-TAT-Cys]
In vitro [1]
  viability at 10 s, 50 µM: 41.4 ± 3.91%
HeLa cells; [5]
  Mean % cells with GFP signal (±St. Dev.; n = 3): 49.3 ± 4.1%

## HHHHHHKWKLLRRAAKKAARRYLKLLLKQLKLHHHHHH [FSD1]
In vitro [1]; [6]
  viability: 60.3 ± 6.18%

## HHHHHHLAKLFKWLRALIRQGAKRKTKRASAHHHHHH [FSD17]
In vitro [1]; [6]
  viability: 99.1 ± 2.09%

## HHHHHHLALARWARYFRILAKLKRTKRGQAKAHHHHHH [FSD14]
In vitro [1]; [6]
  viability: 92.8 ± 7.42%

## HHHHHHLLKLWRRLLKLFRKALRALAKRAKSALKRAQAA [FSN5]
In vitro [1]; [3]
  viability: 85.4 ± 6.16%

## HHHHHHLLKLWSRLLKLWTQALRALAKRAKALAHHHHHH [FSN6]
In vitro [1]; [3]
  viability: 32.6 ± 4.26%
HeLa cells; [4]
  Mean % cells with GFP signal (±St Dev.; n = 3): 15.74 ± 1.63%

## HHHHHHWYLALLALYWQRAKAKTRQRRRHHHHHH [FSD6]
In vitro [1]; [6]
  viability: 88.1 ± 7.66%

## I: KWKLFKKIGAVLKVLTTGRQIKIWFQNRRMKWKKC / II: KWKLFKKIGAVLKVLTTGRQIKIWFQNRRMKWKKC (disulfide I:35-II:35) [dCM18-Pen-Cys]
In vitro [2]
  viability: 3.36 ± 0.26%

## KWKLFKKIGAVLKVLTTGHHHHHHYARAAARQARA [CM18-His-PTD4]
HeLa cells; [7]
  Cell viability (%) (±St. Dev.; n = 3): 57.7 ± 4.2%

## KWKLFKKIGAVLKVLTTGYARAAARQARAHHHHHH [CM18-PTD4-His]
In vitro [2]
  viability: 29.5 ± 0.21%

## LHHHSHHLIHIWLLFKLKLKKKKAARRARRARRHH [FSD29]
In vitro [1]; [3]
  viability at 1 min, 10 µM: 89.8 ± 8.48%

## LIKLWSRFIKFWTQGRRIKAKLARAGQSWFG [FSN7]
In vitro [1]; [3]
  viability: 93.5 ± 3.61%

## MHHHHHHKWKLFKKIGAVLKVLTTGYARAAARQARAC [Met-His-CM18-PTD4-Cys]
HeLa cells; [7]
  Mean % cells with GFP signal (±St Dev.; n = 3): 45.6 ± 3.88%

## MHHHHHHKWKLFKKIGAVLKVLTTGYGRKKRRQRRRC [M-His-CM18-TAT-Cys]
In vitro [2]
  viability: 33.1 ± 0.4%

## RLHHSHHLIHIWLLFKLKLKKKKRAARRARRHHHL [FSD37]
In vitro [1]; [3]
  viability at 1 min, 10 µM: 73.9 ± 2.62%

## WEAKLAKALAKALAKHLAKALAKALKACEA [KALA, reference compound]
In vitro [2]
  viability: 90.6 ± 4.16%
